Source: US20240041042A1, “1-(PYRIDYL)-5-AZINYLPYRAZOLE DERIVATIVES, AND THEIR USE FOR CONTROL OF UNDESIRED PLANT GROWTH” (Bayer Aktiengesellschaft, priority 2020, published 2024)

Experiments:
Format in all cases: in vivo
[1] = system: Alopecurus myosuroides (ALOMY); test: Post-emergence herbicidal action against ALOMY; details: visual rating about 3 weeks after treatment vs untreated controls (100% = plants have died, 0% = like control plants)
In short: (§1)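 Greenhouse plants sprayed at the one-leaf stage, 2–3 weeks after sowing, with WP or EC formulations plus 0.5% additive at 600 l/ha water. Activity rated visually after about 3 weeks versus untreated controls (100% = dead, 0% = like control), at 320 g/ha or lower.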

[2] = system: Polygonum convolvulus (POLCO); test: Pre-emergence herbicidal action against POLCO
In short: (§2)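 Seeds sown in pots and covered with soil; WP or EC formulations sprayed onto the soil surface at 600 l/ha water with 0.5% additive, at 320 g/ha or lower. Greenhouse growth for about 3 weeks, then visual scoring as % effect against untreated controls (100% = plants dead).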

[3] = system: Verconica persica (VERPE); test: Post-emergence herbicidal action against VERPE
In short: as §1

[4] = system: Amaranthus retroflexus (AMARE); test: Pre-emergence herbicidal action against AMARE; details: visual scoring after about 3 weeks vs untreated controls
In short: as §2

Lolium rigidum (LOLRI) [5] = test: Pre-emergence herbicidal action against LOLRI
In short: as §2

[6] = system: Echinochloa crus-galli (ECHCG); test: Pre-emergence herbicidal action against ECHCG
In short: as §2

Viola tricolor (VIOTR) [7] = test: Pre-emergence herbicidal action against VIOTR
In short: as §2

[8] = system: Matricaria inodora (MATIN); test: Pre-emergence herbicidal action against MATIN; details: dosage 320 g/ha
In short: as §2

Setaria viridis (SETVI) [9] = test: Pre-emergence herbicidal action against SETVI
In short: as §2

[10] = system: Alopecurus myosuroides (ALOMY); test: Pre-emergence herbicidal action against ALOMY; details: scored visually after about 3 weeks, 100% = plants have died
In short: as §2

Viola tricolor (VIOTR) [11] = test: Post-emergence herbicidal action against VIOTR
In short: as §1

[12] = system: Verconica persica (VERPE); test: Pre-emergence herbicidal action against VERPE
In short: as §2

Avena fatua (AVEFA) [13] = test: Pre-emergence herbicidal action against AVEFA; details: visual scoring after about 3 weeks vs untreated controls
In short: as §2

Zea mays (ZEAMX) = details: crop plant compatibility, 80 g/ha, effect vs untreated controls
In short: (§3)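 Test crops were treated 2 to 3 weeks after sowing, once they reached one leaf, by spraying compound in water with 0.5% additive at 600 l/ha. Visual scoring compared them with untreated controls roughly 3 weeks on, and appendices a, b and c denote different doses.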

[14] = system: Pharbitis purpurea (PHBPU); test: Post-emergence herbicidal action against PHBPU
In short: as §1

[15] = system: Pharbitis purpurea (PHBPU); test: Pre-emergence herbicidal action against PHBPU; details: dosage 320 g/ha
In short: as §2

Setaria viridis (SETVI) [16] = test: Post-emergence herbicidal action against SETVI
In short: as §1

[17] = system: Echinochloa crus-galli (ECHCG); test: Post-emergence herbicidal action against ECHCG
In short: as §1

Avena fatua (AVEFA) [18] = test: Post-emergence herbicidal action against AVEFA; details: visual rating about 3 weeks after treatment
In short: as §1

[19] = system: Matricaria inodora (MATIN); test: Post-emergence herbicidal action against MATIN
Description: Seeds of monocotyledonous and dicotyledonous weeds and crop plants are placed in sandy loam in plastic or organic planting pots, covered with soil and cultivated in a greenhouse under controlled growth conditions. 2 to 3 weeks after sowing, the test plants are treated at the one-leaf stage. The compounds of the invention, formulated in the form of wettable powders (WP) or as emulsion concentrates (EC), are then sprayed onto the green parts of the plants as aqueous suspension or emulsion with addition of 0.5% additive at a water application rate of 600 l/ha (converted). After the test plants have been kept in the greenhouse under optimum growth conditions for about 3 weeks, the activity of the preparations is rated visually in comparison to untreated controls. For example, 100% activity=the plants have died, 0% activity=like control plants.
Tables B1 to B13 below show the effects of selected compounds of the general formula (I) according to Table 1 on various harmful plants and at an application rate corresponding to 320 g/ha or lower, which were obtained by the experimental procedure mentioned above. The appendices “a”, “b” and “c” give differentiation by dosage used with otherwise the same harmful plants tested.

Lolium rigidum (LOLRI) [20] = test: Post-emergence herbicidal action against LOLRI
In short: as §1

[21] = system: Polygonum convolvulus (POLCO); test: Post-emergence herbicidal action against POLCO
In short: as §1

[22] = system: Amaranthus retroflexus (AMARE); test: Post-emergence herbicidal action against AMARE
In short: as §1

Oryza sativa (ORYSA) = details: crop plant compatibility, 80 g/ha, effect in comparison to untreated controls
In short: as §3

Compound	Post-emergence action against ALOMY in % ([1]; 80 g/ha) [%]	Post-emergence action against ALOMY in % ([1]; 320 g/ha) [%]	Pre-emergence action against POLCO in % ([2]; dosage 320 g/ha) [%]	Post-emergence action against VERPE in % ([3]; 320 g/ha, VERPE) [%]	Post-emergence action against VERPE in % ([3]; dosage 80 g/ha) [%]	Pre-emergence action against AMARE in % ([4]; 80 g/ha) [%]	Pre-emergence action against AMARE in % ([4]; 320 g/ha) [%]	Pre-emergence action against LOLRI in % (Lolium rigidum (LOLRI) [5]; dosage 320 g/ha) [%]	Pre-emergence action against ECHCG in % ([6]; dosage 80 g/ha) [%]	Pre-emergence action against ECHCG in % ([6]; dosage 320 g/ha) [%]	Pre-emergence action against VIOTR in % (Viola tricolor (VIOTR) [7]; 320 g/ha, Viola tricolor) [%]	Pre-emergence action against MATIN in % [8] [%]	Pre-emergence action against SETVI in % (Setaria viridis (SETVI) [9]; dosage 320 g/ha) [%]	Pre-emergence action against ALOMY ([10]; 80 g/ha) [%]	Pre-emergence action against ALOMY ([10]; 320 g/ha) [%]	Pre-emergence action against VERPE in % ([12]; dosage 320 g/ha) [%]	Pre-emergence action against AVEFA in % (Avena fatua (AVEFA) [13]; 320 g/ha) [%]	Post-emergence action against PHBPU in % ([14]; dosage 320 g/ha) [%]	Pre-emergence action against PHBPU in % [15] [%]	Post-emergence action against SETVI in % (Setaria viridis (SETVI) [16]; dosage 320 g/ha) [%]	other results
Cc1cccnc1-n1nc(OCC(=O)O)c(Cl)c1-c1ccc(F)nc1 [Example I-323]	100	100	100	90	90	100	100	100	90	100	100	100	100	100	100	100	100	80	90	90	Pre-emergence action against LOLRI in % (Lolium rigidum (LOLRI) [5]; dosage 80 g/ha): 100%; Pre-emergence action against VIOTR in % (Viola tricolor (VIOTR) [7]; dosage 80 g/ha): 100%; Post-emergence action against VIOTR in % (Viola tricolor (VIOTR) [11]; 80 g/ha): 90%; Post-emergence action against VIOTR in % (Viola tricolor (VIOTR) [11]; 320 g/ha): 90%; Pre-emergence action against AVEFA in % (Avena fatua (AVEFA) [13]; 80 g/ha): 90%; Post-emergence action against ZEAMX in % (Zea mays (ZEAMX)): 0%; Post-emergence action against ECHCG in % ([17]; dosage 80 g/ha): 90%; Post-emergence action against ECHCG in % ([17]; dosage 320 g/ha): 90%; Post-emergence action against AVEFA in % (Avena fatua (AVEFA) [18]; 80 g/ha): 90%; Post-emergence action against AVEFA in % (Avena fatua (AVEFA) [18]; 320 g/ha): 90%; Post-emergence action against MATIN in % ([19]; dosage 320 g/ha): 90%; Post-emergence action against LOLRI in % (Lolium rigidum (LOLRI) [20]; dosage 80 g/ha): 90%; Post-emergence action against LOLRI in % (Lolium rigidum (LOLRI) [20]; dosage 320 g/ha): 90%
COC(=O)[C@H](C)NC(=O)COc1nn(-c2ccccn2)c(-c2ccc(F)nc2)c1Cl [Example I-87]	80	90	90	90	80	90	100	100	100	100	80	90	100	90	100	90	90	90	90	80	Pre-emergence action against POLCO in % ([2]; dosage 80 g/ha): 80%; Post-emergence action against POLCO in % ([21]; dosage 80 g/ha): 80%; Post-emergence action against POLCO in % ([21]; dosage 320 g/ha): 80%; Pre-emergence action against SETVI in % (Setaria viridis (SETVI) [9]; dosage 80 g/ha): 90%; Post-emergence action against AMARE in % ([22]; 80 g/ha, visual rating about 3 weeks after treatment vs untreated controls (100% = plants have died, 0% = like control plants)): 80%; Post-emergence action against AMARE in % ([22]; 320 g/ha, visual rating about 3 weeks after treatment): 80%; Pre-emergence action against VERPE in % ([12]; dosage 80 g/ha): 80%; Pre-emergence action against AVEFA in % (Avena fatua (AVEFA) [13]; 80 g/ha): 80%; Post-emergence action against ORYSA in % (Oryza sativa (ORYSA)): 0%; Post-emergence action against SETVI in % (Setaria viridis (SETVI) [16]; dosage 80 g/ha): 80%; Post-emergence action against ECHCG in % ([17]; dosage 320 g/ha): 80%; Post-emergence action against AVEFA in % (Avena fatua (AVEFA) [18]; 80 g/ha): 80%; Post-emergence action against AVEFA in % (Avena fatua (AVEFA) [18]; 320 g/ha): 90%; Post-emergence action against MATIN in % ([19]; dosage 320 g/ha): 80%; Post-emergence action against LOLRI in % (Lolium rigidum (LOLRI) [20]; dosage 320 g/ha): 80%
CCOC(=O)COc1nn(-c2ncccc2C)c(-c2ccc(F)nc2)c1Cl [Example I-316]	100	100	100	90	90	100	100	100	100	100	100	100	100	90	100	100	100	90	90	90	Pre-emergence action against POLCO in % ([2]; dosage 80 g/ha): 100%; Pre-emergence action against LOLRI in % (Lolium rigidum (LOLRI) [5]; dosage 80 g/ha): 100%; Pre-emergence action against VIOTR in % (Viola tricolor (VIOTR) [7]; dosage 80 g/ha): 100%; Pre-emergence action against SETVI in % (Setaria viridis (SETVI) [9]; dosage 80 g/ha): 100%; Post-emergence action against VIOTR in % (Viola tricolor (VIOTR) [11]; 80 g/ha): 90%; Post-emergence action against VIOTR in % (Viola tricolor (VIOTR) [11]; 320 g/ha): 90%; Post-emergence action against ZEAMX in % (Zea mays (ZEAMX)): 0%; Post-emergence action against PHBPU in % ([14]; dosage 80 g/ha): 90%; Post-emergence action against SETVI in % (Setaria viridis (SETVI) [16]; dosage 80 g/ha): 90%; Post-emergence action against ECHCG in % ([17]; dosage 80 g/ha): 90%; Post-emergence action against ECHCG in % ([17]; dosage 320 g/ha): 90%; Post-emergence action against AVEFA in % (Avena fatua (AVEFA) [18]; 80 g/ha): 90%; Post-emergence action against AVEFA in % (Avena fatua (AVEFA) [18]; 320 g/ha): 100%; Post-emergence action against MATIN in % ([19]; dosage 80 g/ha): 80%; Post-emergence action against MATIN in % ([19]; dosage 320 g/ha): 90%; Post-emergence action against LOLRI in % (Lolium rigidum (LOLRI) [20]; dosage 80 g/ha): 100%; Post-emergence action against LOLRI in % (Lolium rigidum (LOLRI) [20]; dosage 320 g/ha): 100%
